# Assay results as given in the kinase profiling compilation of Christmann-Franck et al. (2016).
# Legend:
# Assay in all cases: radiometric filter-binding kinase assay
# ROCK2 (rat) = conditions: accession and sequence are those of the human protein
# CHEK2 (human) = CHEK2 (human) (UniProt O96017)
# PRKACA (human) = PRKACA (human) (UniProt P17612)
# LCK (mouse) = conditions: accession and sequence are those of the human protein
# MAPK13 (human) = MAPK13 (human) (UniProt O15264)
# PHKG1 (human) = PHKG1 (human) (UniProt Q16816)
# Sequence of PHKG1 (human) (Q16816 whole entry, looked up): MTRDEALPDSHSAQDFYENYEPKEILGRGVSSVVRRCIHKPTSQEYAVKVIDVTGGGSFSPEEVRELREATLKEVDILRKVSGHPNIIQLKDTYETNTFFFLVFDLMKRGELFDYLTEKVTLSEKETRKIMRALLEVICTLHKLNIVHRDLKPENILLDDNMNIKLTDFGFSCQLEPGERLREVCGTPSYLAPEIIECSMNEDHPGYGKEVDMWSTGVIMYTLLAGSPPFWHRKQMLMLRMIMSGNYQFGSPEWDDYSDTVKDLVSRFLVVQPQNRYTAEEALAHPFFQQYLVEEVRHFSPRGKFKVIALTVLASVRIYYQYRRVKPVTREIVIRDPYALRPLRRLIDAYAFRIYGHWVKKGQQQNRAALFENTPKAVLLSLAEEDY
# EEF2K (human) = EEF2K (human) (UniProt O00418)
# CSK (human) = CSK (human) (UniProt P41240)
# EPHB3 (human) = EPHB3 (human) (UniProt P54753)
# RPS6KA1 KD1 KD2 (human) = RPS6KA1 KD1 KD2 (human) (UniProt Q15418)
# INSRR (human) = INSRR (human) (UniProt P14616)
# Sequence of INSRR (human) (P14616 whole entry, looked up): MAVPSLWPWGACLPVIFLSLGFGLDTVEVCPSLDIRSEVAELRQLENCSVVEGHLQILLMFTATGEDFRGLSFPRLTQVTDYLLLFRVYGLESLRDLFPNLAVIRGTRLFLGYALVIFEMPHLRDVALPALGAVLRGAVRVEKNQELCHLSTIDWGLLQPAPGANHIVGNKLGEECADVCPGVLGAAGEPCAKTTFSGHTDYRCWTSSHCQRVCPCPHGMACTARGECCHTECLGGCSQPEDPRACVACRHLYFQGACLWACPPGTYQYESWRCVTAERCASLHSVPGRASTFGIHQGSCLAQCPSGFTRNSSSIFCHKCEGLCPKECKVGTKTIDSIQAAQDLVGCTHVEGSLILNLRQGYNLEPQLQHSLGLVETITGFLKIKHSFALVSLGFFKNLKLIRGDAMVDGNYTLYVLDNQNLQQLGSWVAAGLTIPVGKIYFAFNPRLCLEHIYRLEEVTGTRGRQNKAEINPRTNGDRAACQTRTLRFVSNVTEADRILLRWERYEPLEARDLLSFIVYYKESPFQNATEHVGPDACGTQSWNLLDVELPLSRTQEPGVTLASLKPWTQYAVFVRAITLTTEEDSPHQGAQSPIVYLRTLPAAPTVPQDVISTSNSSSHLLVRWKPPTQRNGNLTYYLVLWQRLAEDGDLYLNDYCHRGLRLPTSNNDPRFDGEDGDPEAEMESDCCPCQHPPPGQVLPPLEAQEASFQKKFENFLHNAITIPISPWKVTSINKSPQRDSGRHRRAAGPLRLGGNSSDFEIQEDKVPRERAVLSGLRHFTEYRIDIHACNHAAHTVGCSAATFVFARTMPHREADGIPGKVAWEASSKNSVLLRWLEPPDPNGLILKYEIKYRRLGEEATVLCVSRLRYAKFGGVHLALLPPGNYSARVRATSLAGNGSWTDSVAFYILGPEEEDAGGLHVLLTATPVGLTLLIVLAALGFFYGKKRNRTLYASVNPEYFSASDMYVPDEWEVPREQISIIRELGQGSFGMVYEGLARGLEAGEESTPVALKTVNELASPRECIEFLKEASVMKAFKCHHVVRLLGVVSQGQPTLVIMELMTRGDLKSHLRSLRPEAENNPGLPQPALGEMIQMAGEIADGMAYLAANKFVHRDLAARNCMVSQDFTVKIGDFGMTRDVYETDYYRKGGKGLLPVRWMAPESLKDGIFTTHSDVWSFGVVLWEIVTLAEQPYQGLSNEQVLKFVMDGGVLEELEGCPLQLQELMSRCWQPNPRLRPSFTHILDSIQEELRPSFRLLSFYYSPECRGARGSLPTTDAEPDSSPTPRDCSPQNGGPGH
# CSNK2A1 (human) = CSNK2A1 (human) (UniProt P68400)
# Sequence of CSNK2A1 (human) (P68400 whole entry, looked up): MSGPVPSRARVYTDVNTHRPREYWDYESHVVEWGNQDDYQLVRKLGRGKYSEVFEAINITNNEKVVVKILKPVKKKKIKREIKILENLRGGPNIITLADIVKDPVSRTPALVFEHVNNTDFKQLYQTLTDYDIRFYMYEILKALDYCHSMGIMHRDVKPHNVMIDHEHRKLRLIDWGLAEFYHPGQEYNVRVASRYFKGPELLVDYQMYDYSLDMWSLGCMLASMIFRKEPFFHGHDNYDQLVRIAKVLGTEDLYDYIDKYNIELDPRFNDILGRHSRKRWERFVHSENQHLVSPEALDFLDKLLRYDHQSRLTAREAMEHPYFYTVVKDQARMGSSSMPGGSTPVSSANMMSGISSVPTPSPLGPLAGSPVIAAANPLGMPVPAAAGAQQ
# CDK2 CCNA2 (human) = CDK2 CCNA2 (human) (UniProt P20248+P24941)
# IKBKB (human) = IKBKB (human) (UniProt O14920)
# Sequence of IKBKB (human) (O14920 whole entry, looked up): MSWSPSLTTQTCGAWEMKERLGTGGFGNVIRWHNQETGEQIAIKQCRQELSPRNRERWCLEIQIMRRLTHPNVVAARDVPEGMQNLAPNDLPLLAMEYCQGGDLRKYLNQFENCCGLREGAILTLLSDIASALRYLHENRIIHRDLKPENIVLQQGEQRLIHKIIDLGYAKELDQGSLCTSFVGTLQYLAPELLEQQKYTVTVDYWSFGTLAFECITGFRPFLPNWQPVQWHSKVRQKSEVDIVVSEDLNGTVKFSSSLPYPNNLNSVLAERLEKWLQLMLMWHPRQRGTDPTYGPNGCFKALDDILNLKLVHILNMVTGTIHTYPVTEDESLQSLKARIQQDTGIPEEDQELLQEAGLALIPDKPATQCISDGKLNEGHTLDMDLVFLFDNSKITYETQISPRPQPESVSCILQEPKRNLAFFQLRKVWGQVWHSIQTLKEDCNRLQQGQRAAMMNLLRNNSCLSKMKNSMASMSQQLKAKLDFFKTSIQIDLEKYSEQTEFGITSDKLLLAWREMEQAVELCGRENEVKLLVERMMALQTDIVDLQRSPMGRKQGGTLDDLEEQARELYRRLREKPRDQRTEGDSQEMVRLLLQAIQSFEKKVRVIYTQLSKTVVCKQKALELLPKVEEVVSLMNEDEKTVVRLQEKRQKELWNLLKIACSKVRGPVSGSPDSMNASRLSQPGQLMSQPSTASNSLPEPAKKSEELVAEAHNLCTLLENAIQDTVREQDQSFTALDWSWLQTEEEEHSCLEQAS
# MKNK2 (human) = MKNK2 (human) (UniProt Q9HBH9)
# Sequence of MKNK2 (human) (Q9HBH9 whole entry, looked up): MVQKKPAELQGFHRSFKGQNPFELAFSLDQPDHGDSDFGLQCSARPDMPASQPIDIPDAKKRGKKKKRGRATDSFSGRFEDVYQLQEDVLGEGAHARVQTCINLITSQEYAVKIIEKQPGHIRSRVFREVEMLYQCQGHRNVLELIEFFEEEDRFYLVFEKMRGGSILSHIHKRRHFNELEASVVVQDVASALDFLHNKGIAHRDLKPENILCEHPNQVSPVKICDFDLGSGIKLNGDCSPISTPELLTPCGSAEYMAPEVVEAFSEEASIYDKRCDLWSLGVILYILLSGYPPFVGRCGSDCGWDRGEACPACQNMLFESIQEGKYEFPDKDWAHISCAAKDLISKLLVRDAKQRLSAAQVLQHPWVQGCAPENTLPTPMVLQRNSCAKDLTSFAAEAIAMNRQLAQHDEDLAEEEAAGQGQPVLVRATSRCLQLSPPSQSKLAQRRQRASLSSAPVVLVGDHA
# FGFR1 (human) = FGFR1 (human) (UniProt P11362)
# SRC (human) = SRC (human) (UniProt P12931)
# PRKCZ (human) = PRKCZ (human) (UniProt Q05513)
# Sequence of PRKCZ (human) (Q05513 whole entry, looked up): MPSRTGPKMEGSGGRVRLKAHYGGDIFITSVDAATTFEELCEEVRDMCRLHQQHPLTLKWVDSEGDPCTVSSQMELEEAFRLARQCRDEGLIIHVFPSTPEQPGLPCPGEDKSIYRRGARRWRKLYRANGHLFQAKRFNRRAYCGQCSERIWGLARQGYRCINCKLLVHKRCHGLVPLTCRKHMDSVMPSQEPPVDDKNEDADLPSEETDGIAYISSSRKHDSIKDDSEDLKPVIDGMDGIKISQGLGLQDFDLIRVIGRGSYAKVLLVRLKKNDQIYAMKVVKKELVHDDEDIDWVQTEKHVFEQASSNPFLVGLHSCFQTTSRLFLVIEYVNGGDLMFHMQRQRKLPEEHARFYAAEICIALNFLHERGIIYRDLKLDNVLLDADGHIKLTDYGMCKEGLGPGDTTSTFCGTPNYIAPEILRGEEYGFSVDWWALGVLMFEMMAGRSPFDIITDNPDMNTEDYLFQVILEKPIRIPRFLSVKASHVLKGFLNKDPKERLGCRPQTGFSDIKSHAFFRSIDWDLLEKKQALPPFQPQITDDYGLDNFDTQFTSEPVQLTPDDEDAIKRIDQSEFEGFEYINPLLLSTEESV
# MKNK1 (human) = MKNK1 (human) (UniProt Q9BUB5)
# Sequence of MKNK1 (human) (Q9BUB5 whole entry, looked up): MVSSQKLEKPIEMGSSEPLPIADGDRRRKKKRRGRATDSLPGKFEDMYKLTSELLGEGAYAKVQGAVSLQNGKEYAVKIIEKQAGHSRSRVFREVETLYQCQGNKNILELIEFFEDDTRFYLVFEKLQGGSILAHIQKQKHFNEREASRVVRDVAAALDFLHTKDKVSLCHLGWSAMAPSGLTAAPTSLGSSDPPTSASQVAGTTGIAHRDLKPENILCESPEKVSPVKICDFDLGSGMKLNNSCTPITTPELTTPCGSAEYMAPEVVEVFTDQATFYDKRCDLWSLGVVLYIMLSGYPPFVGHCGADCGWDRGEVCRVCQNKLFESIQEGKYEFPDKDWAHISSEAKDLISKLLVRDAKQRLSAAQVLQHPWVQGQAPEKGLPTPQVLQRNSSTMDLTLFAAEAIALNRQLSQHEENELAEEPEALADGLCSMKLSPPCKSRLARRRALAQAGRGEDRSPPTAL
# MAPK1 (human) = MAPK1 (human) (UniProt P28482)
# MELK (human) = MELK (human) (UniProt Q14680)
# MYLK (human) = MYLK (human) (UniProt Q15746)
# GSK3B (human) = GSK3B (human) (UniProt P49841)
# Sequence of GSK3B (human) (P49841 whole entry, looked up): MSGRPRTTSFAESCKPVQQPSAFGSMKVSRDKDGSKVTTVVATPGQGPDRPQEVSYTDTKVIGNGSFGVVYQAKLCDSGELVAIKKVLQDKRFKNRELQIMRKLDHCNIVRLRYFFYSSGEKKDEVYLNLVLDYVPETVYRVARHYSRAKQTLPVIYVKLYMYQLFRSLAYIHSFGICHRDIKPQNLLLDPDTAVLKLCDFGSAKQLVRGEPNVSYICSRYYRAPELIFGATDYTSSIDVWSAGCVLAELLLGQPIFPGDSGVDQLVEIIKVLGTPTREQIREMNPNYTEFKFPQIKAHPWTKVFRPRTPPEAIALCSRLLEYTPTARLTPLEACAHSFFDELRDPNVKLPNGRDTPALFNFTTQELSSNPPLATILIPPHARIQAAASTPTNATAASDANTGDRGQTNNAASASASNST
# PRKAA1 or PRKAA2 (rat) = conditions: accession and sequence are those of the human protein
structure (smiles),measurement,setting,value
C/C(=C1/C(=O)Nc2ccc(NC(N)=O)cc21)c1ccc[nH]1,residual activity,ROCK2 (rat); compound 0.001 µM,88%
same,residual activity,ROCK2 (rat); compound 0.01 µM,90%
same,residual activity,ROCK2 (rat); compound 0.1 µM,84%
same,residual activity,CHEK2 (human); compound 0.001 µM,32%
same,residual activity,CHEK2 (human); compound 0.01 µM,7%
same,residual activity,CHEK2 (human); compound 0.1 µM,0%
same,residual activity,PRKACA (human); compound 0.001 µM,92%
same,residual activity,PRKACA (human); compound 0.01 µM,87%
same,residual activity,PRKACA (human); compound 0.1 µM,81%
same,residual activity,LCK (mouse); compound 0.001 µM,97%
same,residual activity,LCK (mouse); compound 0.01 µM,95%
same,residual activity,LCK (mouse); compound 0.1 µM,64%
same,residual activity,MAPK13 (human); compound 0.001 µM,96%
same,residual activity,MAPK13 (human); compound 0.01 µM,89%
same,residual activity,MAPK13 (human); compound 0.1 µM,86%
same,residual activity,PHKG1 (human); compound 0.001 µM,97%
same,residual activity,PHKG1 (human); compound 0.01 µM,66%
same,residual activity,PHKG1 (human); compound 0.1 µM,18%
same,residual activity,EEF2K (human); compound 0.01 µM,101%
same,residual activity,EEF2K (human); compound 0.1 µM,106%
same,residual activity,CSK (human); compound 0.01 µM,97%
same,residual activity,CSK (human); compound 0.1 µM,102%
same,residual activity,EPHB3 (human); compound 0.001 µM,114%
same,residual activity,EPHB3 (human); compound 0.01 µM,99%
same,residual activity,EPHB3 (human); compound 0.1 µM,101%
same,residual activity,RPS6KA1 KD1 KD2 (human); compound 0.001 µM,89%
same,residual activity,RPS6KA1 KD1 KD2 (human); compound 0.01 µM,75%
same,residual activity,RPS6KA1 KD1 KD2 (human); compound 0.1 µM,24%
same,residual activity,INSRR (human); compound 0.001 µM,91%
same,residual activity,INSRR (human); compound 0.01 µM,75%
same,residual activity,INSRR (human); compound 0.1 µM,47%
same,residual activity,CSNK2A1 (human); compound 0.001 µM,92%
same,residual activity,CSNK2A1 (human); compound 0.01 µM,91%
same,residual activity,CSNK2A1 (human); compound 0.1 µM,86%
same,residual activity,CDK2 CCNA2 (human); compound 0.001 µM,102%
same,residual activity,CDK2 CCNA2 (human); compound 0.01 µM,87%
same,residual activity,CDK2 CCNA2 (human); compound 0.1 µM,85%
same,residual activity,IKBKB (human); compound 0.001 µM,76%
same,residual activity,IKBKB (human); compound 0.01 µM,74%
same,residual activity,MKNK2 (human); compound 0.001 µM,93%
same,residual activity,MKNK2 (human); compound 0.01 µM,86%
same,residual activity,MKNK2 (human); compound 0.1 µM,78%
same,residual activity,FGFR1 (human); compound 0.001 µM,96%
same,residual activity,FGFR1 (human); compound 0.01 µM,61%
same,residual activity,FGFR1 (human); compound 0.1 µM,18%
same,residual activity,SRC (human); compound 0.001 µM,84%
same,residual activity,SRC (human); compound 0.01 µM,79%
same,residual activity,SRC (human); compound 0.1 µM,71%
same,residual activity,PRKCZ (human); compound 0.001 µM,78%
same,residual activity,PRKCZ (human); compound 0.01 µM,84%
same,residual activity,PRKCZ (human); compound 0.1 µM,83%
same,residual activity,MKNK1 (human); compound 0.001 µM,92%
same,residual activity,MKNK1 (human); compound 0.01 µM,87%
same,residual activity,MKNK1 (human); compound 0.1 µM,82%
same,residual activity,MAPK1 (human); compound 0.001 µM,108%
same,residual activity,MAPK1 (human); compound 0.01 µM,95%
same,residual activity,MAPK1 (human); compound 0.1 µM,79%
same,residual activity,MELK (human); compound 0.001 µM,86%
same,residual activity,MELK (human); compound 0.01 µM,47%
same,residual activity,MELK (human); compound 0.1 µM,9%
same,residual activity,MYLK (human); compound 0.001 µM,90%
same,residual activity,MYLK (human); compound 0.01 µM,89%
same,residual activity,MYLK (human); compound 0.1 µM,65%
same,residual activity,GSK3B (human); compound 0.01 µM,92%
same,residual activity,GSK3B (human); compound 0.1 µM,49%
same,residual activity,PRKAA1 or PRKAA2 (rat); compound 0.001 µM,62%
same,residual activity,PRKAA1 or PRKAA2 (rat); compound 0.01 µM,25%
same,residual activity,PRKAA1 or PRKAA2 (rat); compound 0.1 µM,7%
NC(=O)Nc1ccc2c(c1)/C(=C/c1cc(-c3cccnc3)c[nH]1)C(=O)N2,residual activity,ROCK2 (rat); compound 1.0 µM,37%
same,residual activity,ROCK2 (rat); compound 10.0 µM,7%
same,residual activity,CHEK2 (human); compound 0.1 µM,-1%
same,residual activity,CHEK2 (human); compound 1.0 µM,-5%
same,residual activity,CHEK2 (human); compound 10.0 µM,1%
same,residual activity,PRKACA (human); compound 0.1 µM,78%
same,residual activity,PRKACA (human); compound 1.0 µM,66%
same,residual activity,PRKACA (human); compound 10.0 µM,32%
same,residual activity,LCK (mouse); compound 0.1 µM,44%
same,residual activity,LCK (mouse); compound 1.0 µM,10%
same,residual activity,LCK (mouse); compound 10.0 µM,3%
same,residual activity,MAPK13 (human); compound 0.1 µM,85%
same,residual activity,MAPK13 (human); compound 1.0 µM,62%
same,residual activity,MAPK13 (human); compound 10.0 µM,22%
same,residual activity,PHKG1 (human); compound 0.1 µM,13%
same,residual activity,PHKG1 (human); compound 1.0 µM,1%
same,residual activity,PHKG1 (human); compound 10.0 µM,0%
same,residual activity,EEF2K (human); compound 0.1 µM,102%
same,residual activity,EEF2K (human); compound 1.0 µM,86%
same,residual activity,EEF2K (human); compound 10.0 µM,116%
same,residual activity,CSK (human); compound 0.1 µM,98%
same,residual activity,CSK (human); compound 1.0 µM,69%
same,residual activity,CSK (human); compound 10.0 µM,42%
same,residual activity,EPHB3 (human); compound 0.1 µM,107%
same,residual activity,EPHB3 (human); compound 1.0 µM,90%
same,residual activity,EPHB3 (human); compound 10.0 µM,53%
same,residual activity,RPS6KA1 KD1 KD2 (human); compound 0.1 µM,24%
same,residual activity,RPS6KA1 KD1 KD2 (human); compound 1.0 µM,10%
same,residual activity,RPS6KA1 KD1 KD2 (human); compound 10.0 µM,5%
same,residual activity,INSRR (human); compound 0.1 µM,35%
same,residual activity,INSRR (human); compound 1.0 µM,16%
same,residual activity,INSRR (human); compound 10.0 µM,5%
same,residual activity,CSNK2A1 (human); compound 0.1 µM,93%
same,residual activity,CSNK2A1 (human); compound 1.0 µM,65%
same,residual activity,CSNK2A1 (human); compound 10.0 µM,21%
same,residual activity,CDK2 CCNA2 (human); compound 0.1 µM,63%
same,residual activity,CDK2 CCNA2 (human); compound 1.0 µM,14%
same,residual activity,CDK2 CCNA2 (human); compound 10.0 µM,6%
same,residual activity,IKBKB (human); compound 0.1 µM,75%
same,residual activity,IKBKB (human); compound 10.0 µM,26%
same,residual activity,MKNK2 (human); compound 0.1 µM,75%
same,residual activity,MKNK2 (human); compound 1.0 µM,46%
same,residual activity,MKNK2 (human); compound 10.0 µM,16%
same,residual activity,FGFR1 (human); compound 0.1 µM,17%
same,residual activity,FGFR1 (human); compound 1.0 µM,2%
same,residual activity,FGFR1 (human); compound 10.0 µM,1%
same,residual activity,SRC (human); compound 0.1 µM,41%
same,residual activity,SRC (human); compound 1.0 µM,7%
same,residual activity,SRC (human); compound 10.0 µM,1%
same,residual activity,PRKCZ (human); compound 0.1 µM,85%
same,residual activity,PRKCZ (human); compound 1.0 µM,66%
same,residual activity,PRKCZ (human); compound 10.0 µM,21%
same,residual activity,MKNK1 (human); compound 0.1 µM,80%
same,residual activity,MKNK1 (human); compound 1.0 µM,54%
same,residual activity,MKNK1 (human); compound 10.0 µM,30%
same,residual activity,MAPK1 (human); compound 0.1 µM,81%
same,residual activity,MAPK1 (human); compound 1.0 µM,41%
same,residual activity,MAPK1 (human); compound 10.0 µM,16%
same,residual activity,MELK (human); compound 0.1 µM,16%
same,residual activity,MELK (human); compound 1.0 µM,3%
same,residual activity,MELK (human); compound 10.0 µM,0%
same,residual activity,MYLK (human); compound 0.1 µM,54%
same,residual activity,MYLK (human); compound 1.0 µM,11%
same,residual activity,MYLK (human); compound 10.0 µM,1%
same,residual activity,GSK3B (human); compound 0.1 µM,11%
same,residual activity,GSK3B (human); compound 1.0 µM,7%
same,residual activity,GSK3B (human); compound 10.0 µM,3%
same,residual activity,PRKAA1 or PRKAA2 (rat); compound 0.1 µM,5%
same,residual activity,PRKAA1 or PRKAA2 (rat); compound 1.0 µM,6%
same,residual activity,PRKAA1 or PRKAA2 (rat); compound 10.0 µM,4%
